According to patent US11707539B2, “FAP-targeted radiopharmaceuticals and imaging agents, and uses related thereto” (Trustees of Tufts College, priority 2020, dated 2023):
pIC50: −log10 of the molar value. Where a SMILES comes first, the peptide text is derived from it.

Tests used:
[1] = target: recombinant human FAP (Homo sapiens (Human), UniProt Q12884); test: In vitro enzyme IC50 assay, FAP (Example 10); format: biochemical; conditions: 10 min preincubation at 25° C., Z-Gly-Pro-AMC
Description: Biological Materials: For the in vitro IC50 determination assays, recombinant human DPPIV, DPP9, FAP, and PREP were purchased from R&D Systems, and DPP8 was from Biomol International. Buffer systems used were A (25 mM Tris, pH 8.0), B (50 mM Tris, pH 7.5), C (50 mM Tris, 140 mM NaCl, pH 7.5), D (25 mM Tris, 250 mM NaCl, pH 7.5), and E (20 mM Tris, 20 mM KCl, pH 7.4). […] Substrate Specificity Assay. Peptide libraries (0.21 mM) were incubated for 24 h with 1 nM FAP in buffer E at 37° C. The reaction was quenched by the addition of 1.2 N HCl. The samples were analyzed by reverse-phase HPLC-MS on a Thermo Finnigan LCQ Duo, quantifying the peaks in the resulting base peak chromatograms. Relative cleavage values were determined by comparing the postquench abundance of intact peptides to those in the initial library.
In Vitro Enzyme IC50 Assays. Enzymatic activity of DPPIV, DPP8, DPP9, FAP, and PREP was measured at 25° C. on a Molecular Devices M2e multidetection microtiter plate reader, monitoring the fluorescence at an excitation wavelength of 380 nm and an emission wavelength of 460 nm. The substrate was either H-Gly-Pro-AMC for the DPPIV, DPP8, and DPP9 assays or Z-Gly-Pro-AMC for the FAP and PREP assays. The reaction mixture contained […], enzyme, buffer A (DPPIV and DPP9), buffer B (DPP8), buffer C (FAP), or buffer D (PREP) and a suitable amount of inhibitor (ranging between 10-4 and 10-11 M) in a total volume of 210 μL. The final enzyme concentrations were 0.1, 0.8, 0.4, 1.2, and 0.6 nM for DPPIV, DPP8, DPP9, FAP, and PREP, respectively. […] Those prepared in pH 2.0 solution were preincubated at 25° C. for 4 h prior to dilution. Immediately prior to the commencement of the experiment, the 100 mM stocks were further diluted to 10−3 M in the appropriate assay buffer, from which 1:10 serial dilutions were prepared. All inhibitors were tested in triplicate.

[2] = Stability in aqueous solution of pH about 3; conditions: during HPLC purification and subsequent lyophilization
[3] = Solubility in water after lyophilization
[4] = target: recombinant human dipeptidyl peptidase IV (DPPIV) (Homo sapiens (Human), UniProt P27487); test: In vitro IC50 assay, dipeptidyl peptidase IV (Example 15); format: biochemical; conditions: Gly-Pro-AMC, room temperature
Chain of recombinant human dipeptidyl peptidase IV (DPPIV) (P27487 whole entry): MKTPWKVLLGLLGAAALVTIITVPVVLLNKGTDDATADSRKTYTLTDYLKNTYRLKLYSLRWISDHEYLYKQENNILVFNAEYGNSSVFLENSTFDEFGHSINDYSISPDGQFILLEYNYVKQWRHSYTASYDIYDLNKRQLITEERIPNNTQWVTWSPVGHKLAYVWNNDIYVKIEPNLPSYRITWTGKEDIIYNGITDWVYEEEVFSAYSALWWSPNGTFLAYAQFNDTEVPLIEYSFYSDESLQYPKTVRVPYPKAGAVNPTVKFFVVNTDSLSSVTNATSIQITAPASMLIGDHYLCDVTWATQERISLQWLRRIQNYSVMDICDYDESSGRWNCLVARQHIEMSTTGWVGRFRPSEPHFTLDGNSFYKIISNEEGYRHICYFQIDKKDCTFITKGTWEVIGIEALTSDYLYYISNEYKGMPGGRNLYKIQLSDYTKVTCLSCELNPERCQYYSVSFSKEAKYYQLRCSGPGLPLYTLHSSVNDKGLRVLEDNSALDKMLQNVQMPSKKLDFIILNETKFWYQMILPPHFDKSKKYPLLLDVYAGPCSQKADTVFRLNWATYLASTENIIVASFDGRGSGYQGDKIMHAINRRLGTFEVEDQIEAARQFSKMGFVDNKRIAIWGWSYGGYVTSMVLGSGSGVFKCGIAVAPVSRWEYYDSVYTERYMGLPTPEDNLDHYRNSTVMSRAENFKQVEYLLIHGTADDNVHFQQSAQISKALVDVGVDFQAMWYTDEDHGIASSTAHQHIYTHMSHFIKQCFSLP
Description: (§1) The purpose of this assay is to determine the IC50 of various inhibitors against recombinant human dipeptidyl peptidase IV (DPPIV), fibroblast activation protein (FAP) or prolyl oligopeptidase (PREP).
(§2) The assays are conducted in the following steps: • 1 Dissolve the compound in DMSO to a final concentration of 100 mM. From this, prepare a 1 mM stock at pH 7.5 in 50 mM Tris, 140 mM NaCl Buffer (FAP)/pH 7.5 in 25 mM Tris, 250 mM NaCl Buffer/pH 8.0 140 mM NaCl Buffer (PREP). • 2. Serial dilute (1:10) the 1 mM compound stocks prepared previously into the appropriate assay buffer (FAP: 50 mM Tris, 140 mM NaCl, pH 7.5/PREP: 25 mM Tris, 0.25 M NaCl, pH 7.5/DPPIV: 25 mM Tris, pH 8.0) to one row of a 96-well plate. • 3. […] Dilute the enzymes into their appropriate assay buffers. The final enzyme concentrations should be 0.1, 1.2, and 0.6 nM for DPPIV, FAP and PREP respectively. Add 180 μL to each well needed in columns 2-10. Column 1 (A,B,C) should be prepared with 200 ul of appropriate assay buffer as control. Column 1 (D,E,F,G,H) should be prepared with 20 ul of appropriate assay buffer and 180 ul enzyme as no inhibitor control. • 5. Add 20 μL of the compound of interest from the dilution plate prepared in step 2 to columns 2-10 of the assay plate where appropriate. Each sample should be tested in triplicate. Allow this to incubate for 10 minutes at room temperature, shaking the plate for the first two minutes. • 6. Add 10 μL of 20× substrate prepared in step 3 to each well and allow this to incubate for 15 minutes at room temperature, shaking the plate for the first two minutes. • 7. Read the fluorescence at λex: 380, λem: 460. (DPcore=[dAla|dSerGly]-[boroPro|Pro-nitrile], XXaa=alpha-amino acid)

[5] = target: recombinant human fibroblast activation protein (FAP) (Homo sapiens (Human), UniProt Q12884); test: In vitro IC50 assay, fibroblast activation protein (Example 15); format: biochemical; conditions: Z-Gly-Pro-AMC, room temperature; read-out: FAP IC50
Chain of recombinant human fibroblast activation protein (FAP) (Q12884 whole entry): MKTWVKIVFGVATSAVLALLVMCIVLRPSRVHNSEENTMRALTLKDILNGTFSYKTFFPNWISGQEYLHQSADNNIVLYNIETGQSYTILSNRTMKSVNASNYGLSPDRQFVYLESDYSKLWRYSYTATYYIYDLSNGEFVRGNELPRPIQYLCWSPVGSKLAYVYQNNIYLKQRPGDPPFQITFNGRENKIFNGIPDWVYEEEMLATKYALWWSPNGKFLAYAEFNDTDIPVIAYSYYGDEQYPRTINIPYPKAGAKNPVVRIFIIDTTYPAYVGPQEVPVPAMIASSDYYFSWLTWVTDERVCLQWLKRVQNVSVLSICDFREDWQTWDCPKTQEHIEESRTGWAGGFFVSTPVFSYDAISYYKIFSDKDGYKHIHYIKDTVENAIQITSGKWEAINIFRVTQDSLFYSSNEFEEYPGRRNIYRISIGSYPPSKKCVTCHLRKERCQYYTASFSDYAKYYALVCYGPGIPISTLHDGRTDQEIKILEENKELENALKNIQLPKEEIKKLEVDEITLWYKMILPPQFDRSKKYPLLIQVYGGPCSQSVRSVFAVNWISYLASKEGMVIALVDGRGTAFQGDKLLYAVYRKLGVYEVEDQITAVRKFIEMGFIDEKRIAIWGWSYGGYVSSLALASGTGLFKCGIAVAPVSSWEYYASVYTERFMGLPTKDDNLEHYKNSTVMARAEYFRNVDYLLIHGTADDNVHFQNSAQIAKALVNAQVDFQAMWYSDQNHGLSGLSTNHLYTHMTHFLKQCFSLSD
Description: as §1, §2

Chain of recombinant human FAP (Q12884 whole entry): as above

Compound	pIC50 [1]	degradation in aqueous solution [2]	solubility [3] [mg/mL]	pIC50 [4]	pIC50 [5]
C[C@@H](NC(=O)CNC(=O)CN1CCN(CC(=O)O)CCN(CC(=O)O)CCN(CC(=O)O)CC1)C(=O)N1CCC[C@H]1B(O)O [Compound 6512, DOTA-Gly-D-Ala-boroPro]	7.14				
C[C@@H](NC(=O)c1ccc(CNC(=O)CN2CCN3CCN4CCN(CC2)CC(=O)[O][Ga]([O]C(=O)C3)[O]C(=O)C4)cc1)C(=O)N1CCC[C@H]1B(O)O [Compound 6555GA]		did not observe any sign of degradation	> 50	< 4.00	
C[C@@H](NC(=O)[C@H](CO)NC(=O)CN1CCN2CCN(CC(=O)O)CCN(CC1)CC(=O)[O][Cu][O]C(=O)C2)C(=O)N1CCC[C@H]1B(O)O [Compound 6509CU, DOTA[(Cu(II)]-Ser-D-Ala-boroPro]	6.89				6.89
CC(C)[C@H](NC(=O)CN1CCN(CC(=O)O)CCN(CC(=O)O)CCN(CC(=O)O)CC1)C(=O)N[C@H](C)C(=O)N1CCC[C@H]1B(O)O [Compound 6508, DOTA-Val-DAla-boroPro]	7.21				
C[C@@H](NC(=O)c1ccc(CNC(=O)CN2CCN3CCN4CCN(CC2)CC(=O)[O][Lu]([O]C(=O)C3)[O]C(=O)C4)cc1)C(=O)N1CCC[C@H]1B(O)O [Compound 6555LU]		did not observe any sign of degradation	> 50	< 4.00	
DOTA[Cu(II)]-EACA-HyBz-D-Ala-boroPro [Compound 6486]	8.55				8.55
C[C@H](NC(=O)CN1CCN(CC(=O)O)CCN(CC(=O)O)CCN(CC(=O)O)CC1)C(=O)N[C@H](C)C(=O)N1CCC[C@H]1B(O)O [Compound 6511, DOTA-Ala-D-Ala-boroPro]	7.14				
CC(C)[C@H](NC(=O)CNC(=O)CNC(=O)CN1CCN2CCN(CC(=O)O)CCN(CC1)CC(=O)[O][Cu][O]C(=O)C2)C(=O)N[C@H](C)C(=O)N1CCC[C@H]1B(O)O [Compound 6522CU, DOTA[(Cu(II)]-Gly-Gly-Val-D-Ala-boroPro] (HELM PEPTIDE1{[O=C(O)CN1CCN2CCN(CC(=O)[*:2])CCN(CC1)CC(=O)[O][Cu][O]C(=O)C2].G.G.V.[dA].[OB(O)[C@@H]1CCCN1[*:1]]}$$$$V2.0)	8.06				8.46
C[C@@H](NC(=O)[C@H]1CC[C@H](CNC(=O)CN2CCN3CCN4CCN(CC2)CC(=O)[O][Lu]([O]C(=O)C3)[O]C(=O)C4)CC1)C(=O)N1CCC[C@H]1B(O)O [Compound 6952LU, DOTA(Lu)-TXA-D-alaboroPro]		did not observe any sign of degradation	> 50	< 4.00	
C[C@@H](NC(=O)c1ccc(CNC(=O)CN2CCN(CC(=O)O)CCN(CC(=O)O)CCN(CC(=O)O)CC2)cc1)C(=O)N1CCC[C@H]1B(O)O [Compound 6555, DOTA-aminomethyl-Bz-D-Ala-boroPro]		did not observe any sign of degradation	> 50	< 4.00	
C[C@@H](NC(=O)[C@H]1CC[C@H](CNC(=O)CN2CCN3CCN4CCN(CC2)CC(=O)[O][Ga]([O]C(=O)C3)[O]C(=O)C4)CC1)C(=O)N1CCC[C@H]1B(O)O [Compound 6952GA, DOTA(Ga)-TXA-D-alaboroPro]		did not observe any sign of degradation	> 50		
C[C@@H](NC(=O)c1ccc(NNC(=O)CCCNC(=O)CN2CCN3CCN4CCN(CC2)CC(=O)[O][Gd]([O]C(=O)C3)[O]C(=O)C4)cc1)C(=O)N1CCC[C@H]1B(O)O [Compound 6489Gd, DOTA[Gd]-GABA-HyBz-D-Ala-boroPro]	8.96				
